± gives the standard deviation of the averaged measurements.
Compound: CN1CC[C@H](c2c(O)cc(O)c3c(=O)cc(-c4ccccc4Cl)oc23)[C@H](O)C1 [FLAVOPIRIDOL]
Assay: surviving fraction relative to DMSO-only wells; higher = less growth inhibition
Details: exposure time: 5 days
Procedure, shortened: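 For each tumour cell line, log-phase cells were put into 384-well plates at 250–500 cells per well, then after 24 hours exposed continuously for five days to inhibitors at 0.5, 1, 5, 10, 50, 100, 500 and 1000 nM. Viability was assessed by CellTiter-Glo luminescence, with surviving fraction expressed relative to the median of DMSO-only wells. Lines were screened three times and retained only if replicate Pearson r exceeded 0.7 and median Z' exceeded 0.3.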

Test System | surviving fraction (0.5 nM) | surviving fraction (1 nM) | surviving fraction (5 nM) | surviving fraction (10 nM) | surviving fraction (50 nM) | surviving fraction (100 nM) | surviving fraction (500 nM) | surviving fraction (1000 nM)
HU09 BONE | 1.06 ± 0.12 | 1.08 ± 0.037 | 1.22 ± 0.14 | 1.08 ± 0.082 | 0.638 ± 0.051 | 0.0337 ± 0.0032 | 0.024 | 0.025 ± 0.0017
HUO3N1 BONE | 1.07 ± 0.016 | 1 ± 0.022 | 1.14 ± 0.033 | 1.12 ± 0.03 | 1.26 ± 0.052 | 0.929 ± 0.077 | 0.0483 ± 0.0011 | 0.039 ± 0.0061
JIMT1 BREAST | 1 ± 0.012 | 1.01 ± 0.033 | 1.05 ± 0.047 | 1.02 ± 0.035 | 0.809 ± 0.019 | 0.2 ± 0.029 | 0.0467 ± 0.0053 | 0.0375 ± 0.0027
JURKAT HAEMATOPOIETIC AND LYMPHOID TISSUE | 1.04 ± 0.018 | 1.07 ± 0.046 | 1.05 ± 0.026 | 1.04 ± 0.042 | 0.708 ± 0.022 | 0.119 ± 0.0035 | 0.031 ± 0.001 | 0.0303 ± 0.0011
KPD BONE | 0.881 ± 0.31 | 1.01 ± 0.074 | 1.08 ± 0.048 | 0.997 ± 0.03 | 0.525 ± 0.035 | 0.101 ± 0.015 | 0.031 ± 0.0017 | 0.0277 ± 0.006
LM7 BONE | 1.06 ± 0.022 | 1.08 ± 0.096 | 1.15 ± 0.11 | 1.1 ± 0.091 | 0.824 ± 0.031 | 0.446 ± 0.016 | 0.0593 ± 0.0038 | 0.0543 ± 0.0029
LNCAP PROSTATE | 0.884 ± 0.014 | 0.917 ± 0.0082 | 0.849 ± 0.038 | 0.84 ± 0.015 | 0.409 ± 0.071 | 0.028 ± 0.0036 | 0.043 ± 0.0027 | 0.0397 ± 0.0011
MCF7 BREAST | 0.982 ± 0.083 | 0.973 ± 0.031 | 0.979 ± 0.032 | 0.865 ± 0.031 | 0.816 ± 0.038 | 0.167 ± 0.011 | 0.163 ± 0.024 | 0.157 ± 0.0056
MDAMB134 BREAST | 1 ± 0.019 | 0.991 ± 0.041 | 1.09 ± 0.037 | 1.13 ± 0.088 | 1.52 ± 0.23 | 0.977 ± 0.15 | 0.303 ± 0.016 | 0.2765 ± 0.0021
MDAMB157 BREAST | 0.999 ± 0.025 | 0.921 ± 0.096 | 0.986 ± 0.073 | 0.927 ± 0.018 | 0.769 ± 0.022 | 0.3 ± 0.027 | 0.0433 ± 0.016 | 0.0383 ± 0.0076
MDAMB231 BREAST | 0.99 ± 0.022 | 0.9902 ± 0.0098 | 1.02 ± 0.042 | 0.995 ± 0.039 | 0.833 ± 0.018 | 0.372 ± 0.028 | 0.0403 ± 0.0017 | 0.0366 ± 0.0017
MDAMB361 BREAST | 0.919 ± 0.18 | 0.814 ± 0.066 | 0.841 ± 0.05 | 0.861 ± 0.13 | 0.937 ± 0.13 | 0.719 ± 0.039 | 0.223 ± 0.021 | 0.229 ± 0.022
MDAMB436 BREAST | 0.998 ± 0.042 | 0.991 ± 0.071 | 1.06 ± 0.14 | 0.941 ± 0.036 | 0.556 ± 0.026 | 0.183 ± 0.024 | 0.185 ± 0.0025 | 0.182 ± 0.0028
MDAMB453 BREAST | 1.039 ± 0.0056 | 1.03 ± 0.071 | 1.1 ± 0.083 | 1.01 ± 0.02 | 0.586 ± 0.056 | 0.134 ± 0.022 | 0.085 ± 0.017 | 0.074 ± 0.025
MDAMB468 BREAST | 1.03 ± 0.031 | 0.967 ± 0.064 | 1.03 ± 0.045 | 0.991 ± 0.04 | 0.734 ± 0.061 | 0.15 ± 0.016 | 0.0447 ± 0.005 | 0.04 ± 0.0061
MFM223 BREAST | 1.45 ± 0.57 | 1.45 ± 0.64 | 1.46 ± 0.61 | 1.25 ± 0.4 | 0.351 ± 0.032 | 0.119 ± 0.045 | 0.0438 ± 0.021 | 0.0642 ± 0.061
MG63 BONE | 1.06 ± 0.022 | 1.06 ± 0.023 | 1.165 ± 0.0064 | 1.19 ± 0.033 | 1.35 ± 0.045 | 0.782 ± 0.049 | 0.0347 ± 0.0023 | 0.0313 ± 0.0015
MHM BONE | 1.02 ± 0.036 | 1.04 ± 0.035 | 1.06 ± 0.024 | 1.11 ± 0.025 | 1.227 ± 0.0078 | 1.16 ± 0.048 | 0.0433 ± 0.0021 | 0.0397 ± 0.0021
NCIH441 LUNG | 1.18 ± 0.06 | 1.12 ± 0.026 | 1.09 ± 0.042 | 1.08 ± 0.11 | 0.953 ± 0.081 | 0.698 ± 0.17 | 0.103 ± 0.024 | 0.0917 ± 0.024
NOS1 BONE | 1.25 ± 0.046 | 1.19 ± 0.054 | 1.22 ± 0.15 | 1.26 ± 0.084 | 0.54 ± 0.061 | 0.083 ± 0.0027 | 0.031 ± 0.004 | 0.0383 ± 0.0084
NY BONE | 0.984 ± 0.015 | 0.977 ± 0.017 | 1.05 ± 0.027 | 1.01 ± 0.05 | 0.813 ± 0.071 | 0.0513 ± 0.01 | 0.025 ± 0.001 | 0.024 ± 0.001
OS25HAL BONE | 1.01 ± 0.035 | 0.996 ± 0.058 | 1.12 ± 0.052 | 1.06 ± 0.021 | 1.1 ± 0.036 | 0.101 ± 0.015 | 0.048 ± 0.013 | 0.0443 ± 0.012
OSHN BONE | 1.08 ± 0.018 | 1.08 ± 0.022 | 1.114 ± 0.0095 | 1.08 ± 0.018 | 1.23 ± 0.035 | 0.382 ± 0.041 | 0.0357 ± 0.0055 | 0.0323 ± 0.0075
PCI30 HEADNECK | 1.02 ± 0.019 | 1.02 ± 0.038 | 1.15 ± 0.031 | 1.13 ± 0.029 | 0.701 ± 0.028 | 0.085 ± 0.0053 | 0.032 ± 0.0017 | 0.0303 ± 0.00058
RDES SOFT TISSUE | 1.36 ± 0.11 | 1.3 ± 0.12 | 1.39 ± 0.07 | 1.44 ± 0.059 | 1.66 ± 0.12 | 0.945 ± 0.2 | 0.0467 ± 0.0025 | 0.0383 ± 0.0025
S68 BREAST | 1.18 ± 0.31 | 0.847 ± 0.12 | 0.765 ± 0.091 | 1.2 ± 0.31 | 0.888 ± 0.29 | 0.483 ± 0.068 | 0.0377 ± 0.0021 | 0.0367 ± 0.0055
SAOS2 BONE | 1.23 ± 0.13 | 1.18 ± 0.06 | 1.26 ± 0.039 | 1.14 ± 0.04 | 0.889 ± 0.048 | 0.159 ± 0.022 | 0.0307 ± 0.0015 | 0.0247 ± 0.0025
SCC003 HEADNECK | 1.06 ± 0.061 | 1.1 ± 0.083 | 1.12 ± 0.055 | 0.987 ± 0.084 | 0.667 ± 0.032 | 0.392 ± 0.14 | 0.0627 ± 0.0064 | 0.0573 ± 0.0032
SCC36 HEADNECK | 0.982 ± 0.1 | 0.974 ± 0.062 | 1.14 ± 0.16 | 1.24 ± 0.15 | 0.962 ± 0.086 | 0.405 ± 0.0093 | 0.036 ± 0.0035 | 0.032 ± 0.001
SCC47 HEADNECK | 1.18 ± 0.052 | 1.2 ± 0.061 | 1.23 ± 0.093 | 1.15 ± 0.078 | 0.665 ± 0.013 | 0.153 ± 0.043 | 0.039 ± 0.0017 | 0.0353 ± 0.0029
